Measured values from US9255272B2, “Use of inhibitors of leukotriene B4 receptor BLT2 for treating asthma” (Korea University Research & Business Foundation, priority 2007, dated 2016).

What was measured:
OVA-challenged mice [1] = test: AHR (Penh) in response to methacholine in OVA-challenged mice; type: in vivo, mouse; conditions: for reduction of Penh (based on area-under-the-curve calculations): methacholine 6.25-50 mg/ml, 24 h after last OVA challenge
Protocol: Female BALB/c mice and C57BL/6 mice (7 weeks old; 18-20 g) were obtained from Orientbion Inc. (Seoungnam, Korea). Sensitization and challenge were carried out as described previously with some modification (28). Briefly, female C57BL/6 mice (7 weeks old; 18-20 g) were immunized by intraperitoneal (i.p.) injection of 200 μg ovalbumin (OVA) emulsified in 2.5 mg of adjuvant aluminum hydroperoxide gel (alum) (Pierce, Rockford, Ill.). A second i.p. injection of 20 μg OVA adsorbed onto alum (2.5 mg) was administered 10 days later. After an additional 10 days, mice were exposed to an aerosol of 1% OVA in saline for 30 min daily on 3 consecutive days. On day 25, mice were finally challenged by provocation with 10% OVA aerosol. For inhibition experiments, sense or antisense BLT2 (1.6 mg/kg) was injected intravenously 24 h and then 1 h before the 10% OVA challenge. The mice were then killed on day 27 to assess asthmatic phenotypes. Antisense BLT2 oligonucleotide (5′-[…]-3′ (SEQ ID NO: 15)), sense BLT2 oligonucleotide (5′-[…]-3′ (SEQ ID NO: 16)). […]
Airway AHR was measured in unrestrained, conscious mice 24 h after the final OVA challenge using a whole-body plethysmograph, as previously described (29). Mice were placed in a barometric plethysmographic chamber (All Medicus Co., Seoul, Korea), and baseline readings were taken and averaged for 3 min. […] Readings were taken and averaged for 3 min after each nebulization, and enhanced pause (Penh) was determined. Signals were analyzed to derive whole body flow parameters including respiratory rate, tidal volume, inspiratory time (Ti), expiratory time (Te)1. peak inspiratory flow (PIF), peak expiratory flow (PEF), and relaxation time (RT). […] Baseline Penh measurements for each animal were recorded for 3 min and averaged. Results are expressed as the percentage increase of Penh following challenge with each concentration of methacholine, where the baseline Penh (after saline challenge) is expressed as 100%. Penh values averaged for 3 min after each nebulization were evaluated. […]

OVA-challenged mice [2] = test: Histological analysis of lung airway inflammation in OVA-challenged mice; type: in vivo, mouse
Protocol: Female BALB/c mice and C57BL/6 mice (7 weeks old; 18-20 g) were obtained from Orientbion Inc. (Seoungnam, Korea). Sensitization and challenge were carried out as described previously with some modification (28). Briefly, female C57BL/6 mice (7 weeks old; 18-20 g) were immunized by intraperitoneal (i.p.) injection of 200 μg ovalbumin (OVA) emulsified in 2.5 mg of adjuvant aluminum hydroperoxide gel (alum) (Pierce, Rockford, Ill.). A second i.p. injection of 20 μg OVA adsorbed onto alum (2.5 mg) was administered 10 days later. After an additional 10 days, mice were exposed to an aerosol of 1% OVA in saline for 30 min daily on 3 consecutive days. On day 25, mice were finally challenged by provocation with 10% OVA aerosol. For inhibition experiments, sense or antisense BLT2 (1.6 mg/kg) was injected intravenously 24 h and then 1 h before the 10% OVA challenge. The mice were then killed on day 27 to assess asthmatic phenotypes. Antisense BLT2 oligonucleotide (5′-[…]-3′ (SEQ ID NO: 15)), sense BLT2 oligonucleotide (5′-[…]-3′ (SEQ ID NO: 16)).
Alternatively, BALB/c mice were sensitized on day 1 by i.p. injection of 20 μg OVA emulsified in 2.5 mg of alum (Pierce, Rockford, Ill.), followed by an identical booster injection administered on day 14. On days 21, 22 and 23 after initial sensitization, the mice were challenged for 30 min with an aerosol of 1% OVA using an ultrasonic nebulizer. LY255283 (2.5 mg/kg) or vehicle control (DMSO) was administered intravenously 1 h before 1% OVA challenge. Mice were killed on day 25, to assess asthmatic phenotypes. 2′,7′-dichorofluorescein diacetate (DCF-DA) was purchased from Molecular Probes (Eugene, Oreg.). BSA and DMSO were from Sigma-Aldrich (St. Louis, Mo.). Acetyl-methacholine chloride was purchased from Sigma-Aldrich (St. Louis, Mo.). All other chemicals were from standard sources and were of molecular biology grade or higher. All mice were maintained and bred under specific pathogen-free conditions in the Korea University mouse facility, and experiments were conducted within the parameters of an approved protocol by the Animal Research Committee.
Inflammatory cells in the BAL fluid were collected by centrifugation (1,000 g for 3 min) and washed once in PBS. Cells were counted using a hemocytometer, and viability was assessed by trypan blue exclusion. In addition, cytospin was carried out for each BAL sample, which was then stained with Diff-Quick (Merck, Dorset, U.K.), enabling differential cell counts to be made. For histological analysis, the lungs of the mice were dissected 48 h after OVA challenge and fixed with 10% formaldehyde in PBS, dehydrated in ethanol-xylene, and embedded in paraffin. Multiple paraffin-embedded […] sections were placed on 0.5% gelatin-coated slides, deparaffinized, and stained with hematoxylin-eosin (HE). Images were acquired using a BX51 microscope (Olympus, Tokyo, Japan) equipped with a DP71 digital camera (Olympus, Tokyo, Japan).
(§1) Inflammatory cells in the BAL fluid were collected by centrifugation (1,000 g for 3 min) and washed once in PBS. Cells were counted using a hemocytometer, and viability was assessed by trypan blue exclusion. […]
as §1

[3] = BALB/c mice, LY255283 2.5 mg/kg i.v. 1 hr before 1% OVA challenge
[4] = C57BL/6 mice, antisense BLT2 1.6 mg/kg i.v. 24 hr and 1 hr before 10% OVA challenge

antisense Rac: phosphorothioate 17-mer to the 5′ end of murine Rac mRNA, 5′-CACTTGATGGCCTGCAT-3′ (SEQ ID NO: 22) (listed as DNA, chemistry not fully specified)
AHR after allergen challenge (OVA-challenged mice [1]; mouse model system for asthma, antisense oligomers to Rac1): remarkably reduced | airway obstruction and leukocyte infiltration (histology) (OVA-challenged mice [2]; Rac antisense i.v. 24 hr and 1 hr before 10% OVA challenge, 48 hr after challenge): diminished the effect

CCc1cc(C(C)=O)c(O)cc1OCCCCCC(C)(C)c1nnn[nH]1 [LY255283, 1-[5-ethyl-2-hydroxy-4-[[6-methyl-6-(1H-tetrazol-5-yl)heptyl]oxy]phenyl]-ethanone, reference compound]
reduction of Penh (based on area-under-the-curve calculations) (OVA-challenged mice [1]; LY255283 2.5 mg/kg i.v.): −70% | airway obstruction and leukocyte infiltration (histology) (OVA-challenged mice [2]; [3]): diminished the effect | reduction of inflammation score as compared to control (OVA-challenged mice [2]; [3]): ~66%

antisense BLT2: Antisense BLT2 oligonucleotide 5′-GCTCAGTAGTGTCTCATTCC-3′ (SEQ ID NO: 15) (listed as DNA, chemistry not fully specified)
reduction of Penh (based on area-under-the-curve calculations) (OVA-challenged mice [1]; antisense BLT2 1.6 mg/kg i.v.): −70% | airway obstruction and leukocyte infiltration (histology) (OVA-challenged mice [2]; [4]): diminished | reduction of inflammation scores as compared to control (OVA-challenged mice [2]; [4]): ~67%
